Experimental data taken from article PMC10272112 (Nature Communications, 2023).
pEC50: −log10 of the molar value. Blank lines part the entries; values can stand above or below the molecule they belong to.

What was measured:
RCOR3 = experiment: Chemoproteomic competition pulldown assay (co-competed CoREST partner); type: binding
Experimental: (§1) To identify proteins directly bound by lipoic acid, we employed a chemoproteomic competition assay. Briefly, (R/S)-LA was immobilized on sepharose beads via an amidation reaction to form an affinity matrix (abbreviated as iL; Fig. 1a). This affinity matrix can be incubated with cell lysate to pull down potential LA or LM target proteins and identify these targets via bottom-up proteomics. In a competition assay, free LA or LM were incubated with lysate at different concentrations before pulling down and quantifying target proteins. […] (Fig. 1b, see “Methods” for details). […] The lysate buffer used in this assay contains 1 mM DTT to mimic the intracellular reductive milieu and to reduce lipoic acid and LM. […] Additional competition assays performed in lung adenocarcinoma cell A549 lysate also identified HDAC1, HDAC2, and HDAC6 as targets (Supplementary Fig. 1b). Amongst the three cell lines tested, HDACs were the only confidently identified targets across the 1500–3000 proteins quantified in these assays. […] We validated the results by analogous pulldown competition assays using two other affinity matrices prepared via the immobilization of either the HDAC inhibitor Quisinostat (iQ) and an analog of the class IIa HDAC inhibitor Bürli’s 31[14] (iC)[12]. We have previously shown that these affinity matrices specifically bind to the active sites of HDACs and have used them for HDACi selectivity profiling. Indeed, binding of (R/S)-LA and (R/S)-LM to HDAC1, HDAC2, HDAC3, HDAC6, and, to a lesser extent, HDAC8 was confirmed in these assays (Supplementary Fig. 1c, d). No binding to class IIa HDACs or the recently discovered common HDAC inhibitor off-target MBLAC2 was observed (Supplementary Fig. 1e)[12]. […] This observation might reflect electrostatic repulsion between the HDAC10 active site gate-keeper glutamic acid residues[15],[16] and the terminal carboxylic acid of LA.
(§2) To assess the degree of protein depletion from lysates by the affinity matrix, a second pulldown (PDPD) with fresh beads was performed using the unbound protein fraction from the vehicle control flow through. The beads were washed (1 × 1 mL of lysis buffer without inhibitors and only 0.4% Igepal, 2 × 2 mL of lysis buffer without inhibitors and only 0.2% Igepal), and captured proteins were denatured with 8 M urea buffer, alkylated with 55 mM chloroacetamide and digested with Trypsin according to standard procedures. The resulting peptides were desalted on a C18 filter plate (Sep-Pak® tC18 µElution Plate, Waters), vacuum dried, and stored at −20 °C until LC–MSMS measurement.
(§3) For the competition assays, relative binding was calculated based on the protein intensity ratio to the DMSO control for every single inhibitor concentration. EC50 values were derived from a four-parameter log-logistic regression with variable slope (constrain: bottom > 0). The obtained EC50 values were multiplied with a protein-dependent correction factor (cf), resulting in the apparent Kd value (Kd^app). The correction factor is determined by calculating the ratio of the protein intensity of two consecutive pulldowns of the vehicle control sample[13]. Targets of the inhibitors were annotated manually according to published procedures[12],[46],[47]. […] Additionally, the number of unique peptides and MSMS counts per condition were taken into account. Positive target binding across several independent experiments performed with different cell lysates further substantiated our confidence for a true positive drug-target binding event.

RCOR1 = experiment: as above; type: binding
Experimental: as §1, §2, §3

HDAC1,2,3,6,8 = experiment: HDAC-Glo assay (panel); type: biochemical, human; details: for HDAC inhibition by the oxidized form: absence of TCEP; for pEC50: with TCEP, range over HDAC1,2,3,6,8, read-out: EC50 of HDAC inhibition, reduced form
Experimental: (§4) To validate the inhibition of HDACs by LA and LM and elaborate on the structure-activity relationship (SAR) of enantiomers as well as oxidized versus reduced forms of the molecules, we performed enzyme activity assays for recombinant HDAC1,2,3,6,8 as well as FRET-based binding assay for recombinant HDAC10.
(§5) The experiments were performed according to ref. [48]. […] Drug dosing was performed with a D300e Digital Dispenser (Tecan). HDACs (7 ng/mL for HDAC1, 25 ng/mL for HDAC2, 200 ng/mL for HDAC3/Ncor2 complex, 100 ng/mL for HDAC6, 200 ng/mL for HDAC8) and inhibitors were incubated together at room temperature (RT) for 30 min. After the addition of the HDAC-Glo™ I/II reagent, plates were shaken (800 rpm orbital shaker, 30 s), centrifuged (300 g, 1 min), and incubated at RT for 30 min. Luminescence was detected with a CLARIOstar (BMG Labtech) plate reader.

HDAC8 = target: T1, HDAC8 (Homo sapiens, UniProt Q9BY41); experiment: HDAC-Glo assay; type: biochemical; design: purchased BPS Bioscience 50008; details: read-out: log EC50 from dose-dependent HDAC inhibition curves (converted)
T1 sequence (Q9BY41 1-377): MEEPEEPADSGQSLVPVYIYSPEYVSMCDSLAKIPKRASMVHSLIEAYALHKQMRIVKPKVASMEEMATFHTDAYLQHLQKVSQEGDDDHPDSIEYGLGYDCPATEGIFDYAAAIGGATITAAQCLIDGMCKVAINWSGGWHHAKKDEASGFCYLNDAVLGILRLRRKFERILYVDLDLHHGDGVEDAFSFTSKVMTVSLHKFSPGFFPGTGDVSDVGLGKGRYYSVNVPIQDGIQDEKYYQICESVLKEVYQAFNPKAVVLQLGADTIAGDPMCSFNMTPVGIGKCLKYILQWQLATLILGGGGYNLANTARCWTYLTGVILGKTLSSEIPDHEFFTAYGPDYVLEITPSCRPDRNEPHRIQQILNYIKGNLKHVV
Experimental: as §4, §5

[1] = iL, A549 lysate, log10 M -4.52288
[2] = iL, A549 lysate, log10 M -5.52288
[3] = iL, A549 lysate, log10 M -6.52288
[4] = iL, A549 lysate, log10 M -7.52288
[5] = iL, A549 lysate, log10 M -8.52288
[6] = iQ, SW620 lysate, log10 M -3.52288
[7] = iQ, SW620 lysate, log10 M -4.52288
[8] = iQ, SW620 lysate, log10 M -5.52288
[9] = iQ, SW620 lysate, log10 M -6.52288
[10] = iL, MV4-11 lysate, log10 M -3.52288
[11] = iL, MV4-11 lysate, log10 M -4.52288
[12] = iL, MV4-11 lysate, log10 M -5.52288
[13] = iL, MV4-11 lysate, log10 M -6.52288

Compound: O=C(O)CCCCC1CCSS1 (racemic) [(R/S)-LA, (R/S)-lipoic acid]
relative binding vs DMSO (RCOR3; iL, A549 lysate, log10 M -4): 0
relative binding vs DMSO (RCOR3; [1]): 0
relative binding vs DMSO (RCOR3; iL, A549 lysate, log10 M -5): 0
relative binding vs DMSO (RCOR3; [2]): 0
relative binding vs DMSO (RCOR3; iL, A549 lysate, log10 M -6): 0.7701
relative binding vs DMSO (RCOR3; [3]): 1.109
relative binding vs DMSO (RCOR3; [4]): 1.217
relative binding vs DMSO (RCOR3; iL, A549 lysate, log10 M -8): 1.199
relative binding vs DMSO (RCOR3; [5]): 1.533
relative binding vs DMSO (RCOR3; [6]): 0.06142
relative binding vs DMSO (RCOR3; iQ, SW620 lysate, log10 M -4): 0.2749
relative binding vs DMSO (RCOR3; [7]): 0.55
relative binding vs DMSO (RCOR3; iQ, SW620 lysate, log10 M -5): 0.4741
relative binding vs DMSO (RCOR3; [8]): 0.7307
relative binding vs DMSO (RCOR3; iQ, SW620 lysate, log10 M -6): 0.7404
relative binding vs DMSO (RCOR3; [9]): 0.7642
relative binding vs DMSO (RCOR3; iQ, SW620 lysate, log10 M -7): 0.7542
relative binding vs DMSO (RCOR1; iL, A549 lysate, log10 M -4): 0.04582
relative binding vs DMSO (RCOR1; [1]): 0.0556
relative binding vs DMSO (RCOR1; iL, A549 lysate, log10 M -5): 0.1265
relative binding vs DMSO (RCOR1; [2]): 0.344
relative binding vs DMSO (RCOR1; iL, A549 lysate, log10 M -6): 0.6862
relative binding vs DMSO (RCOR1; [3]): 1.238
relative binding vs DMSO (RCOR1; [4]): 0.8815
relative binding vs DMSO (RCOR1; iL, A549 lysate, log10 M -8): 1.065
relative binding vs DMSO (RCOR1; [5]): 1.673
relative binding vs DMSO (RCOR1; iL, SW620 lysate, log10 M -3.52288): 0
relative binding vs DMSO (RCOR1; iL, SW620 lysate, log10 M -4): 0
relative binding vs DMSO (RCOR1; iL, SW620 lysate, log10 M -4.52288): 0.2767
relative binding vs DMSO (RCOR1; iL, SW620 lysate, log10 M -5): 0.2629
relative binding vs DMSO (RCOR1; iL, SW620 lysate, log10 M -5.52288): 0.4301
relative binding vs DMSO (RCOR1; iL, SW620 lysate, log10 M -6): 0.8481
relative binding vs DMSO (RCOR1; iL, SW620 lysate, log10 M -6.52288): 1.192
relative binding vs DMSO (RCOR1; iL, SW620 lysate, log10 M -7): 0.8783
relative binding vs DMSO (RCOR1; [6]): 0.1176
relative binding vs DMSO (RCOR1; iQ, SW620 lysate, log10 M -4): 0.1659
relative binding vs DMSO (RCOR1; [7]): 0.5043
relative binding vs DMSO (RCOR1; iQ, SW620 lysate, log10 M -5): 0.4267
relative binding vs DMSO (RCOR1; [8]): 0.9917
relative binding vs DMSO (RCOR1; iQ, SW620 lysate, log10 M -6): 1.001
relative binding vs DMSO (RCOR1; [9]): 0.9723
relative binding vs DMSO (RCOR1; iQ, SW620 lysate, log10 M -7): 0.6892
HDAC inhibition by the oxidized form (HDAC1,2,3,6,8): diminished activity
pEC50 (HDAC1,2,3,6,8): 4.36 to 6.00
EC50 (HDAC8): 22.3 µM

relative binding vs DMSO (RCOR3; [10]): 0.04482
relative binding vs DMSO (RCOR3; iL, MV4-11 lysate, log10 M -4): 0.03145
relative binding vs DMSO (RCOR3; [11]): 0.2203
relative binding vs DMSO (RCOR3; iL, MV4-11 lysate, log10 M -5): 0.5854
relative binding vs DMSO (RCOR3; [12]): 0.7487
relative binding vs DMSO (RCOR3; iL, MV4-11 lysate, log10 M -6): 1.237
relative binding vs DMSO (RCOR3; [13]): 1.016
relative binding vs DMSO (RCOR3; iL, MV4-11 lysate, log10 M -7): 0.9839
relative binding vs DMSO (RCOR3; [6]): 0.0548
relative binding vs DMSO (RCOR3; iQ, SW620 lysate, log10 M -4): 0.3164
relative binding vs DMSO (RCOR3; [7]): 0.4259
relative binding vs DMSO (RCOR3; iQ, SW620 lysate, log10 M -5): 0.6647
relative binding vs DMSO (RCOR3; [8]): 0.7959
relative binding vs DMSO (RCOR3; iQ, SW620 lysate, log10 M -6): 1.1558
relative binding vs DMSO (RCOR3; [9]): 0.7323
relative binding vs DMSO (RCOR3; iQ, SW620 lysate, log10 M -7): 0.9341
relative binding vs DMSO (RCOR1; [10]): 0.05785
relative binding vs DMSO (RCOR1; iL, MV4-11 lysate, log10 M -4): 0.0548
relative binding vs DMSO (RCOR1; [11]): 0.1462
relative binding vs DMSO (RCOR1; iL, MV4-11 lysate, log10 M -5): 0.4201
relative binding vs DMSO (RCOR1; [12]): 0.5816
relative binding vs DMSO (RCOR1; iL, MV4-11 lysate, log10 M -6): 0.5592
relative binding vs DMSO (RCOR1; [13]): 0.7783
relative binding vs DMSO (RCOR1; iL, MV4-11 lysate, log10 M -7): 0.8248
pEC50 (HDAC1,2,3,6,8): 4.36 to 6.00
EC50 (HDAC8): 7.73 µM
Compound: NC(=O)CCCCC1CCSS1 (racemic) [(R/S)-LM, (R/S)-lipoamide]
HDAC inhibition by the oxidized form (HDAC1,2,3,6,8): No activity at all
